According to patent US12433903B2 (priority 2021, dated 2025):

What was measured:
[1] = system: all the UGTs combined; assay: UGT reaction phenotyping, all the UGTs combined; type: in vitro ADME, Human
Description: Experimental Summary: UGT Reaction Phenotyping (7 Isoforms).

[2] = PK study after oral (PO) or intraperitoneal (IP) administration; type: in vivo, male Sprague Dawley rats; details: CBG 30 mg/kg PO or IP; Compound 1 31.5 mg/kg PO; Compound 2 32.7 mg/kg PO
Method: This study evaluated the pharmacokinetics of (E)-2-(3,7-dimethylocta-2,6-dien-1-yl)-3-methoxy-5-pentylphenol (1) and (E)-2-(3,7-dimethylocta-2,6-dien-1-yl)-1,3-dimethoxy-5-pentylbenzene (2) following oral (PO) or intraperitoneal (IP) administration to male Sprague Dawley rats.
For the oral formulation the test article was added to the appropriate amount of Maisine and stirred until uniform. Next Labrasol was added to the formulation and allowed to stir until uniform. Finally, water will be slowly added to the stirring formulation to achieve the final volume.
For the IP formulation the test article was added to the appropriate amount of ethanol and stirred until uniform. Next, the appropriate amount of tween-20 was added to the stirred formulation. Finally, the appropriate amount of saline was slowly added to the stirred formulation to achieve the final volume.
Animals were fasted the evening prior to dosing with food returned at 4 h postdose, and the animals weighed on the morning of dose administration.
IP doses were administered via injection to the intraperitoneal region. PO doses were delivered into the stomach via syringe and gavage tube.
Blood was collected from via direct jugular stick or from the tail vein. Blood samples were kept on ice until being centrifuged at 3200 RPM for 10 minutes at ˜5° C. within 1 h of collection. Plasma was split into 2 cryovials in approximately equal volumes (0.05 mLs) and stored at −20° C.±5° C. until shipment.

[3] = biological target: T1, rUGT1A9 (Homo sapiens, UniProt O60656); assay: Inhibition of CBG glucuronidation by Compound 1, rUGT1A9; type: in vitro ADME; details: for CBG detected (CBG loss) / CBG detected, Percent of control / CBG glucuronide formed / CBG glucuronide formed, Percent of control: 4 min
T1 sequence (O60656 26-530): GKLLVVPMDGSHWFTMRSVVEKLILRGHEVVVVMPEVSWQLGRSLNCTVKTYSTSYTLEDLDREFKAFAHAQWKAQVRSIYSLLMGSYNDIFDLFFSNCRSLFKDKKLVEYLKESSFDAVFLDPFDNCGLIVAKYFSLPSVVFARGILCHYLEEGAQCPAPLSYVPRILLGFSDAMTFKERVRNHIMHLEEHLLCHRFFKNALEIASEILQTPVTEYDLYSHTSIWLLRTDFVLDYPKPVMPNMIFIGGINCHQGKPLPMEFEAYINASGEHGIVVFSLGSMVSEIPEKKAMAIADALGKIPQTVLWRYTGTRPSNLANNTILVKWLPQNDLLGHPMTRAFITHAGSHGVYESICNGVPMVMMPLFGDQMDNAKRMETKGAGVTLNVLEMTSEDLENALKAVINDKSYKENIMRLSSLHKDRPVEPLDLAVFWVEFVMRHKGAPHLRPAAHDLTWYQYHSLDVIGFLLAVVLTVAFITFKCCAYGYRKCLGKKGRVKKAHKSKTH
Method: The purpose of this experiment was to determine if Compound 1 can inhibit the glucuronidation of CBG, as both are substrates for the two major isoforms responsible for CBG glucuronidation.
The ability of Compound 1 to inhibit the metabolism of CBG by UGT1A9 and UGT2B7 enzymes was investigated to ascertain the IC50 values for direct inhibition. The incubation conditions (substrate concentration, incubation time and protein concentration) were determined in Part 2 of the protocol such that CBG metabolism remains near initial rate conditions (e.g., 20-30% substrate loss).
Preliminary experiments were conducted in Part I of the protocol, first to establish the HPLC/MS/MS bioanalytical methods for CBG and CBG glucuronide. […] The second set of preliminary experiments (Part 2), as mentioned, were conducted to optimize the incubation conditions as described above. Incubations (at 37° C.) contained Tris-HCl buffer (100 mM, pH 7.7), MgCl2 (10 mM), EDTA (1 mM, pH 7.4) and UDP-glucuronic acid (UDPGA, 10 mM). CBG was added to each incubation in DMSO such that the final percent of DMSO was 1% v/v, or less. Reactions were terminated by the addition of an equal volume of stop reagent, acetonitrile containing an internal standard. The samples were centrifuged (e.g., 920 RCF for 10 minutes at 10° C.), and the supernatant fractions were analyzed by LC-MS/MS to determine the amount of CBG remaining and formation of one metabolite (CBG glucuronide).
To examine its ability to act as a direct inhibitor of the above listed enzymes, Compound 1 was be added to recombinant human UGT enzyme together with CBG. Reactions were initiated with UDPGA and were carried out in duplicate. For all assays, reactions were terminated by the addition of acetonitrile with or without 2% v/v formic acid, including the internal standard.
Authentic metabolite reference standards were used for quantitation of the probe substrate metabolites and as internal standards. Based on the information obtained in the Part 2 experiments, the following table summarizes the experiments performed, assessing the inhibitory effects of Compound 1 was conducted as follows:
The amounts of CBG present at the end of the incubation periods was determined. For inhibition to have occurred, the amounts of CBG present at the end of the incubation period needed to increase, and the amounts of glucuronide formed needed to decrease.

Structure (SMILES): CCCCCc1cc(O)c(C/C=C(\C)CCC=C(C)C)c(O)c1 [CBG, cannabigerol]
- activity of UGT2B7 relative to UGT1A9 [1]: approximately 1/10
- share of the activity for all the UGTs combined represented by UGT1A9 [1]: ~80%
- glucuronidation / glucuronide formation in plasma (in words) [2]: converted by glucuronidation to CBG-glucoronide

Structure (SMILES): CCCCCc1cc(O)c(C/C=C(\C)CCC=C(C)C)c(OC)c1 [Compound 1, (E)-2-(3,7-dimethylocta-2,6-dien-1-yl)-3-methoxy-5-pentylphenol]
- CBG detected (CBG loss) ([3]; 10 μM CBG + 0.01 μM Compound 1): 1250 pmol
- CBG detected, Percent of control ([3]; 10 μM CBG + 0.01 μM Compound 1): 109
- CBG glucuronide formed ([3]; 10 μM CBG + 0.01 μM Compound 1): 350000 area ratio
- CBG glucuronide formed, Percent of control ([3]; 10 μM CBG + 0.01 μM Compound 1): 94.4
- CBG detected (CBG loss) ([3]; 10 μM CBG + 0.03 μM Compound 1): 1250 pmol
- CBG detected, Percent of control ([3]; 10 μM CBG + 0.03 μM Compound 1): 110
- CBG glucuronide formed ([3]; 10 μM CBG + 0.03 μM Compound 1): 360000 area ratio
- CBG glucuronide formed, Percent of control ([3]; 10 μM CBG + 0.03 μM Compound 1): 97.1
- CBG detected (CBG loss) ([3]; 10 μM CBG + 0.1 μM Compound 1): 1280 pmol
- CBG detected, Percent of control ([3]; 10 μM CBG + 0.1 μM Compound 1): 112
- CBG glucuronide formed, Percent of control ([3]; 10 μM CBG + 0.1 μM Compound 1): 92.0
- CBG detected (CBG loss) ([3]; 10 μM CBG + 0.3 μM Compound 1): 1300 pmol
- CBG detected, Percent of control ([3]; 10 μM CBG + 0.3 μM Compound 1): 114
- CBG glucuronide formed ([3]; 10 μM CBG + 0.3 μM Compound 1): 350000 area ratio
- CBG glucuronide formed, Percent of control ([3]; 10 μM CBG + 0.3 μM Compound 1): 94.4
- CBG detected (CBG loss) ([3]; 10 μM CBG + 1 μM Compound 1): 1210 pmol
- CBG detected, Percent of control ([3]; 10 μM CBG + 1 μM Compound 1): 106
- CBG glucuronide formed, Percent of control ([3]; 10 μM CBG + 1 μM Compound 1): 92.6
- CBG detected (CBG loss) ([3]; 10 μM CBG + 3 μM Compound 1): 1200 pmol
- CBG detected, Percent of control ([3]; 10 μM CBG + 3 μM Compound 1): 105
- CBG glucuronide formed, Percent of control ([3]; 10 μM CBG + 3 μM Compound 1): 93.6
- CBG detected (CBG loss) ([3]; 10 μM CBG + 10 μM Compound 1): 1140 pmol
- CBG detected, Percent of control ([3]; 10 μM CBG + 10 μM Compound 1): 99.8
- CBG glucuronide formed, Percent of control ([3]; 10 μM CBG + 10 μM Compound 1): 92.8
- metabolism of CBG in the presence of Compound 1 (in words) ([3]; 0.01-10 μM Compound 1, CBG disappearance or glucuronide formation): essentially unchanged
- glucuronidation / glucuronide formation in plasma (in words) [2]: significantly reduced levels of glucuronidation compared to CBG
